How the values were obtained:
Type in all cases: in vivo
[1] = test system: Smaller Tea Tortrix (Adxophyes sp.); assay: Test Example 3: insecticidal effect on smaller tea tortrix, tea leaf immersion; details: 50 ppm, tea leaves immersed about 30 seconds, larvae, 25° C., humidity 70%, eight days after the inoculation
Experimental: Insecticidal Effect on Smaller Tea Tortrix (Adxophyes sp.)
Tea leaves were immersed for about 30 seconds in a liquid chemical prepared by diluting a preparation containing each compound listed in Tables 1 to 3 as an active ingredient to adjust the concentration to 50 ppm. After air-dryness, the tea leaves were placed in a plastic Petri dish with a diameter of 9 cm and inoculated with larvae of smaller tea tortrix, after which the dish was allowed to stand in a room thermostatted at 25° C. and having a humidity of 70%. Eight days after the inoculation, the dead and alive were counted and the insecticidal effect was judged according to the criterion shown in Test Example 1. The test was carried out with triplicate groups of 10 insects.

[2] = test system: Common Cutworm (Spodoptera litura); assay: Test Example 2: insecticidal effect on common cutworm, cabbage leaf immersion; details: 50 ppm, cabbage leaf immersed about 30 seconds, second-instar larvae, 25° C., eight days after the inoculation
Excerpt: Insecticidal Effect on Common Cutworm (Spodoptera litura)
A piece of cabbage leaf (cultivar; Shikidori) was immersed for about 30 seconds in a liquid chemical prepared by diluting a preparation containing each compound listed in Tables 4 to 9 as an active ingredient to adjust the concentration to 50 ppm. After air-dryness, it was placed in a plastic Petri dish with a diameter of 9 cm and inoculated with second-instar larvae of common cutworm, after which the dish was closed and then allowed to stand in a room thermostatted at 25° C. Eight days after the inoculation, the dead and alive were counted. The mortality was calculated according to the following equation and the insecticidal effect was judged according to the criterion shown in Test Example 1. The test was carried out with triplicate groups of 10 insects.

[3] = test system: Diamond Back Moth (Plutella xylostella); assay: Test Example 1: insecticidal effect on diamond back moth, immersion of Chinese cabbage seedling with eggs; details: 50 ppm, seedling with eggs immersed about 30 seconds, 25° C., six days after the immersion
Excerpt: Insecticidal Effect on Diamond Back Moth (Plutella xylostella)
Adult diamond back moths were released and allowed to oviposit on a Chinese cabbage seedling. Two days after the release, the seedling having the eggs deposited thereon was immersed for about 30 seconds in a liquid chemical prepared by diluting a preparation containing each compound listed in Tables 4 to 9 as an active ingredient to adjust the concentration to 50 ppm. After air-dryness, it was allowed to stand in a room thermostatted at 25° C. Six days after the immersion, the hatched insects were counted. The mortality was calculated according to the following equation and the insecticidal effect was judged according to the criterion shown below. The test was carried out with triplicate groups of 10 insects.

Row | SMILES | Test Example 3 (insecticidal effect, mortality criterion) [1] | Test Example 2 (insecticidal effect, mortality criterion) [2] | Test Example 1 (insecticidal effect, mortality criterion) [3]
1 | CSCC(C)(C)NC(=O)c1c(I)cccc1C(=O)Nc1ccc(CC(F)(F)F)cc1C [5-1] | A (Mortality 100%) | A (Mortality 100%) | A (Mortality 100%)
2 | CSCC(C)(C)NC(=O)c1c(I)cccc1C(=O)Nc1ccc(CC(F)(F)F)cc1F [5-3] | A (Mortality 100%) | A (Mortality 100%) | A (Mortality 100%)
3 | CSCC(C)(C)NC(=O)c1c(I)cccc1C(=O)Nc1ccc(CC(F)(F)F)cc1Cl [5-4] | A (Mortality 100%) | A (Mortality 100%) | A (Mortality 100%)
4 | CSCC(C)(C)NC(=O)c1c(I)cccc1C(=O)Nc1ccc(CC(F)(F)C(F)(F)F)cc1C [5-5] | A (Mortality 100%) | A (Mortality 100%) | A (Mortality 100%)
5 | CSCC(C)(C)NC(=O)c1c(I)cccc1C(=O)Nc1ccc(CC(F)(F)C(F)(F)F)cc1F [5-6] | A (Mortality 100%) | A (Mortality 100%) | A (Mortality 100%)
6 | CSCC(C)(C)NC(=O)c1c(I)cccc1C(=O)Nc1ccc(CC(F)(F)C(F)(F)C(F)(F)F)cc1C [5-7] | A (Mortality 100%) | A (Mortality 100%) | A (Mortality 100%)
7 | CSCC(C)(C)NC(=O)c1c(I)cccc1C(=O)Nc1ccc(CC(F)(F)C(F)(F)C(F)(F)C(F)(F)C(F)(F)F)cc1CC(F)(F)C(F)(F)C(F)(F)C(F)(F)C(F)(F)F [5-8] | A (Mortality 100%) | A (Mortality 100%) | A (Mortality 100%)
8 | CC(C)NC(=O)c1c(I)cccc1C(=O)Nc1ccc(C(C(F)(F)F)C(F)(F)F)cc1 [5-9] | A (Mortality 100%) | A (Mortality 100%) | A (Mortality 100%)
9 | CSCC(C)(C)NC(=O)c1c(I)cccc1C(=O)Nc1ccc(C(C(F)(F)F)C(F)(F)F)cc1 [5-10] | A (Mortality 100%) | A (Mortality 100%) | A (Mortality 100%)
10 | Cc1cc(C(C(F)(F)F)C(F)(F)F)ccc1NC(=O)c1ccccc1C(=O)NC(C)C [5-11] | A (Mortality 100%) | E (Mortality 49% or less) | A (Mortality 100%)
11 | CON=CC(C)(C)NC(=O)c1ccccc1C(=O)Nc1ccc(C(C(F)(F)F)C(F)(F)F)cc1C [5-12] | A (Mortality 100%) | E (Mortality 49% or less) | A (Mortality 100%)
12 | CSCC(C)(C)NC(=O)c1ccccc1C(=O)Nc1ccc(C(C(F)(F)F)C(F)(F)F)cc1C [5-13] | E (Mortality 49% or less) | E (Mortality 49% or less) | A (Mortality 100%)
13 | Cc1cc(C(C(F)(F)F)C(F)(F)F)ccc1NC(=O)c1cccc([N+](=O)[O-])c1C(=O)NC(C)C [5-14] | A (Mortality 100%) | A (Mortality 100%) | A (Mortality 100%)
14 | CSCC(C)(C)NC(=O)c1c(C(=O)Nc2ccc(C(C(F)(F)F)C(F)(F)F)cc2C)cccc1[N+](=O)[O-] [5-15] | A (Mortality 100%) | A (Mortality 100%) | A (Mortality 100%)
15 | CSCC(C)(C)NC(=O)c1c(F)cccc1C(=O)Nc1ccc(C(C(F)(F)F)C(F)(F)F)cc1C [5-16] | A (Mortality 100%) | A (Mortality 100%) | A (Mortality 100%)
16 | Cc1cc(C(C(F)(F)F)C(F)(F)F)ccc1NC(=O)c1cccc(Cl)c1C(=O)NC(C)C [5-17] | A (Mortality 100%) | A (Mortality 100%) | A (Mortality 100%)
17 | CON=CC(C)(C)NC(=O)c1c(Cl)cccc1C(=O)Nc1ccc(C(C(F)(F)F)C(F)(F)F)cc1C [5-18] | A (Mortality 100%) | A (Mortality 100%) | A (Mortality 100%)
18 | CSCC(C)(C)NC(=O)c1c(Cl)cccc1C(=O)Nc1ccc(C(C(F)(F)F)C(F)(F)F)cc1C [5-19] | A (Mortality 100%) | A (Mortality 100%) | A (Mortality 100%)
19 | CON=CC(C)(C)NC(=O)c1c(Br)cccc1C(=O)Nc1ccc(C(C(F)(F)F)C(F)(F)F)cc1C [5-20] | A (Mortality 100%) | A (Mortality 100%) | A (Mortality 100%)
20 | Cc1cc(C(C(F)(F)F)C(F)(F)F)ccc1NC(=O)c1cccc(I)c1C(=O)NC(C)C [5-21] | A (Mortality 100%) | A (Mortality 100%) | A (Mortality 100%)
21 | Cc1cc(C(C(F)(F)F)C(F)(F)F)ccc1NC(=O)c1cccc(I)c1C(=O)NC(C)(C)C [5-22] | A (Mortality 100%) | C (Mortality 89-80%) | A (Mortality 100%)
22 | Cc1cc(C(C(F)(F)F)C(F)(F)F)ccc1NC(=O)c1cccc(I)c1C(=O)NC(C)(C)CC(C)(C)C [5-23] | A (Mortality 100%) |  | A (Mortality 100%)
23 | C#CC(C)(C)NC(=O)c1c(I)cccc1C(=O)Nc1ccc(C(C(F)(F)F)C(F)(F)F)cc1C [5-24] | A (Mortality 100%) | C (Mortality 89-80%) | A (Mortality 100%)
24 | CCOC(=O)C=CC(C)(C)NC(=O)c1c(I)cccc1C(=O)Nc1ccc(C(C(F)(F)F)C(F)(F)F)cc1C [5-25] | A (Mortality 100%) | A (Mortality 100%) | A (Mortality 100%)
25 | CON=CC(C)(C)NC(=O)c1c(I)cccc1C(=O)Nc1ccc(C(C(F)(F)F)C(F)(F)F)cc1C [5-26] | A (Mortality 100%) | C (Mortality 89-80%) | A (Mortality 100%)
26 | Cc1cc(C(C(F)(F)F)C(F)(F)F)ccc1NC(=O)c1cccc(I)c1C(=O)NC(C)(C)CO [5-27] | E (Mortality 49% or less) | E (Mortality 49% or less) | A (Mortality 100%)
27 | Cc1cc(C(C(F)(F)F)C(F)(F)F)ccc1NC(=O)c1cccc(I)c1C(=O)NC(C)COC(=O)N(C)Cc1ccccc1 (centres unmarked) [5-31] | A (Mortality 100%) | A (Mortality 100%) | A (Mortality 100%)
28 | CCNC(=O)OCC(C)NC(=O)c1c(I)cccc1C(=O)Nc1ccc(C(C(F)(F)F)C(F)(F)F)cc1C (centres unmarked) [5-32] | A (Mortality 100%) | A (Mortality 100%) | A (Mortality 100%)
29 | Cc1cc(C(C(F)(F)F)C(F)(F)F)ccc1NC(=O)c1cccc(I)c1C(=O)NC(C)COC(=O)NCc1ccccc1 (centres unmarked) [5-33] | A (Mortality 100%) | A (Mortality 100%) | A (Mortality 100%)

— patent US7696129B2, “Substituted aromatic amide derivative, intermediate thereof, agrohorticultural insecticide containing thereof and method for the use thereof” (Nihon Nohyaku Co., Ltd., priority 2001, dated 2010)
